The target in this assay is T1, human P2X3 receptor (Homo sapiens, UniProt P56373).
T1 construct: expressed in transfected cells; host or cells: CHO-K1
T1 sequence (P56373 1-397): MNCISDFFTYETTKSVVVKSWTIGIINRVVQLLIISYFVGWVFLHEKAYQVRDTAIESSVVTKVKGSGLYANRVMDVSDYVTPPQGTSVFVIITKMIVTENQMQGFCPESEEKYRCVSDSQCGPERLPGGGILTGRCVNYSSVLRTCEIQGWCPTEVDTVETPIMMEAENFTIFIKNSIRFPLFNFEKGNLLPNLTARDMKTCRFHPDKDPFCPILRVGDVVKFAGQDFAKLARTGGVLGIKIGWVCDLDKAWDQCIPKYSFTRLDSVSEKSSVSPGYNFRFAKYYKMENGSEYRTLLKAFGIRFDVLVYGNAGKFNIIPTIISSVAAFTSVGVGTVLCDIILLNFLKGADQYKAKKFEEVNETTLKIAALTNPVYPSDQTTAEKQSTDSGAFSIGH
The experiment in a line: Calcium luminescence (photoprotein) assay in CHO-K1 cells co-expressing human P2X3 receptor, α,β-Met-ATP stimulation, FLEXSTATION readout. It counts as cell-based. In a few lines: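 CHO-K1 cells co-expressing human P2X3 and a Ca2+-sensitive photoprotein, loaded with coelenterazine in Tyrode's buffer (pH 7.4) for 4 h at 37 °C. Compounds injected 4 min before α,β-Met-ATP stimulation; luminescence recorded, IC50 and pseudo-Hill slope from nonlinear regression of inhibition curves.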

Where [1] appears, read: Table 7, human P2X3 receptor antagonist activity, CHO-K1 cells, α,β-Met-ATP, read-out: h-P2X3 IC50.
[2] abbreviates: Table 8, human P2X3 receptor antagonist activity, CHO-K1 cells, α,β-Met-ATP, read-out: h-P2X3 IC50.

Where two headings read alike, the source gives them in different places.

Take `CC(C)c1nnc2c3ncc(N4CCOCC4)cc3n(Cc3ccc(Cl)cc3)c(=O)n12` [Example 99, 6-(4-chlorobenzyl)-8-(morpholin-4-yl)-3-(propan-2-yl)pyrido[2,3-e][1,2,4]triazolo[4,3-c]pyrimidin-5(6H)-one]: the IC50 under setting [1] was 121 nM.
Still for that read-out and setting: the result for `O=c1n(Cc2ccc(Cl)cc2)c2cc(N3CCOCC3)cnc2c2nnc(Cc3cccnc3)n12` [Example 100, 6-(4-chlorobenzyl)-8-(morpholin-4-y1)-3-(pyridin-3-ylmethyl)pyrido[2,3-e][1,2,4]triazolo[4,3-c]pyrimidin-5(6H)-one] reads 153 nM; that for `COc1cc(Cn2c(=O)n3c(C)nnc3c3ncc(N4CCOCC4)cc32)cc(OC)c1` [Example 101, 6-(3,5-dimethoxybenzyl)-3-methyl-8-(morpholin-4-yl)pyrido[2,3-e][1,2,4]triazolo[4,3-c]pyrimidin-5(6H)-one], 2440 nM.
Take `CC1(c2nnc3c4ncc(N5CCOCC5)cc4n(Cc4ccc(Cl)cc4)c(=O)n23)CC1` [Example 102, 6-(4-chlorobenzyl)-3-(1-methylcyclopropyl)-8-(morpholin-4-yl)pyrido[2,3-e][1,2,4]triazolo[4,3-c]pyrimidin-5(6H)-one]: the IC50 (running text b1263, read-out: inhibition (human P2X3 receptor)) amounted to 25.5 nM.
As to `CC(C)NC(=O)Cc1nnc2c3ncc(N4CCOCC4)cc3n(Cc3ccc(Cl)cc3)c(=O)n12` [Example 103, 2-[6-(4-chlorobenzyl)-8-(morpholin-4-y1)-5-oxo-5,6-dihydropyrido[2,3-e][1,2,4]triazolo[4,3-c]pyrimidin-3-yl]-n-(propan-2-yl)acetamide], the IC50 under setting [1] worked out at 811 nM.
As to `COc1ccc(Cn2c(=O)n3c(CC(C)C)nnc3c3ncc(N4CCOCC4)cc32)cc1` [Example 104, 6-(4-methoxybenzyl)-3-(2-methylpropyl)-8-(morpholin-4-yl)pyrido[2,3-e][1,2,4]triazolo[4,3-c]pyrimidin-5(6H)-one], the IC50 under setting [1] is 734 nM.
Take `O=c1n(Cc2ccc(Cl)cc2)c2cc(N3CCOCC3)cnc2c2nnc(Cc3cccnc3O)n12` [Example 105, 6-(4-chlorobenzyl)-3-[(2-hydroxypyridin-3-yl)methyl]-8-(morpholin-4-yl)pyrido[2,3-e][1,2,4]triazolo[4,3-c]pyrimidin-5(6H)-one]: the IC50 under setting [1] came out at 655 nM.
Take `Cc1ncccc1Cc1nnc2c3ncc(N4CCOCC4)cc3n(Cc3ccc(Cl)cc3)c(=O)n12` [Example 106, 6-(4-chlorobenzyl)-3-[(2-methylpyridin-3-yl)methyl]-8-(morpholin-4-yl)pyrido[2,3-e][1,2,4]triazolo[4,3-c]pyrimidin-5(6H)-one]: the IC50 under setting [1] came to 40.6 nM.
As to `CCn1nccc1-c1nnc2c3ncc(N4CCOCC4)cc3n(Cc3ccc(Cl)cc3)c(=O)n12` [Example 107, 6-(4-chlorobenzyl)-3-(1-ethyl-1h-pyrazol-5-yl)-8-(morpholin-4-yl)pyrido[2,3-e][1,2,4]triazolo[4,3-c]pyrimidin-5(6H)-one], the IC50 under setting [1] was determined as 1320 nM.
On the same count and under the same terms, next, `CC(C)Cc1nnc2c3ncc(N4CCOCC4)cc3n(Cc3ccc(Cl)cc3)c(=O)n12` [Example 108, 6-(4-chlorobenzyl)-3-(2-methylpropyl)-8-(morpholin-4-yl)pyrido[2,3-e][1,2,4]triazolo[4,3-c]pyrimidin-5(6H)-one]: 175 nM.
On the same count and under the same terms, next, `CCn1ccc(-c2nnc3c4ncc(N5CCOCC5)cc4n(Cc4ccc(Cl)cc4)c(=O)n23)n1` [Example 109, 6-(4-chlorobenzyl)-3-(1-ethyl-1h-pyrazol-3-yl)-8-(morpholin-4-yl)pyrido[2,3-e][1,2,4]triazolo[4,3-c]pyrimidin-5(6H)-one]: 203 nM.
On the same count and under the same terms, the result for `Cc1noc(C)c1-c1nnc2c3ncc(N4CCOCC4)cc3n(Cc3ccc(Cl)cc3)c(=O)n12` [Example 110, 6-(4-chlorobenzyl)-3-(3,5-dimethyl-1,2-oxazol-4-yl)-8-(morpholin-4-yl)pyrido[2,3-e][1,2,4]triazolo[4,3-c]pyrimidin-5(6H)-one] reads 257 nM.
As to `CC(C)(C)c1nnc2c3ncc(N4CCOCC4)cc3c(Cc3ccc(Cl)cc3)nn12` [Example 111, 3-tert-butyl-6-(4-chlorobenzyl)-8-(morpholin-4-yl)pyrido[2,3-d][1,2,4]triazolo[4,3-b]pyridazine], the IC50 under setting [2] is 102 nM.
On the same count and under the same terms, next, `CC(C)(C)c1nnc2c3ncc(Br)cc3c(Cc3ccc(Cl)cc3)nn12` [Example 112, 8-bromo-3-tert-butyl-6-(4-chlorobenzyl)pyrido[2,3-d][1,2,4]triazolo[4,3-b]pyridazine]: 1440 nM.
In the case of `Cc1ccc(Cc2nn3c(C(C)C)nnc3c3ncc(N4CCOCC4)cc23)cc1` [Example 115, 6-(4-methylbenzyl)-8-(morpholin-4-yl)-3-(propan-2-yl)pyrido[2,3-d][1,2,4]triazolo[4,3-b]pyridazine], the IC50 under setting [2] was determined as 437 nM.
Same read-out and setting: next, `COc1cc(Cc2nn3c(CC(C)C)nnc3c3ncc(N4CCOCC4)cc23)cc(OC)c1` [Example 116, 6-(3,5-dimethoxybenzyl)-3-(2-methylpropyl)-8-(morpholin-4-yl)pyrido[2,3-d][1,2,4]triazolo[4,3-b]pyridazine]: 469 nM; `Cc1ccc(Cc2nn3c(CC4CCOCC4)nnc3c3ncc(N4CCOCC4)cc23)cc1` [Example 117, 6-(4-methylbenzyl)-8-(morpholin-4-yl)-3-(tetrahydro-2H-pyran-4-ylmethyl)pyrido[2,3-d][1,2,4]triazolo[4,3-b]pyridazine]: 197 nM.
With `COCCNc1cnc2c(c1)c(Cc1cc(OC)cc(OC)c1)nn1c(CC(C)C)nnc21` [Example 118, 6-(3,5-dimethoxybenzyl)-n-(2-methoxyethyl)-3-(2-methylpropyl)pyrido[2,3-d][1,2,4]triazolo[4,3-b]pyridazin-8-amine], under setting [2], the IC50 was determined as 1050 nM.
With `COc1cc(Cc2nn3c(COC(C)C)nnc3c3ncc(N4CCOCC4)cc23)cc(OC)c1` [Example 119, 6-(3,5-dimethoxybenzyl)-8-(morpholin-4-yl)-3-[(propan-2-yloxy)methyl]pyrido[2,3-d][1,2,4]triazolo[4,3-b]pyridazine], the IC50 under setting [2] stood at 1210 nM.
Same read-out and setting: the result for `C=C(C)c1nnc2c3ncc(N4CCOCC4)cc3c(Cc3cc(OC)cc(OC)c3)nn12` [Example 120, 6-(3,5-dimethoxybenzyl)-8-(morpholin-4-yl)-3-(prop-1-en-2-yl)pyrido[2,3-d][1,2,4]triazolo[4,3-b]pyridazine] reads 544 nM.
With `COCC1CN(c2cnc3c(c2)c(Cc2cc(OC)cc(OC)c2)nn2c(CC(C)C)nnc32)C1` [Example 121, 6-(3,5-dimethoxybenzyl)-8-[3-(methoxymethyl)azetidin-1-yl]-3-(2-methylpropyl)pyrido[2,3-d][1,2,4]triazolo[4,3-b]pyridazine], the IC50 under setting [2] was determined as 1150 nM.
Regarding `COc1ccc(Cc2nn3c(C(C)C)nnc3c3ncc(N4CCOCC4)cc23)cc1` [Example 122, 6-(4-methoxybenzyl)-8-(morpholin-4-yl)-3-(propan-2-yl)pyrido[2,3-d][1,2,4]triazolo[4,3-b]pyridazine], under setting [2], the IC50 came to 1810 nM.
`COc1ccc(Cc2nn3c(C(C)(C)C)nnc3c3ncc(N4CCOCC4)cc23)cc1` [Example 123, 3-tert-butyl-6-(4-methoxybenzyl)-8-(morpholin-4-yl)pyrido[2,3-d][1,2,4]triazolo[4,3-b]pyridazine]: under setting [2], the IC50 is 246 nM.
On the same count and under the same terms, the result for `COCC1CN(c2cnc3c(c2)c(Cc2ccc(OC)cc2)nn2c(CC(C)C)nnc32)C1` [Example 124, 6-(4-methoxybenzyl)-8-[3-(methoxymethyl)azetidin-1-yl]-3-(2-methylpropyl)pyrido[2,3-d][1,2,4]triazolo[4,3-b]pyridazine] reads 2820 nM; that for `COc1ccc(Cc2nn3c(CC4CCOCC4)nnc3c3ncc(N4CCOCC4)cc23)cc1` [Example 125, 6-(4-methoxybenzyl)-8-(morpholin-4-yl)-3-(tetrahydro-2H-pyran-4-ylmethyl)pyrido[2,3-d][1,2,4]triazolo[4,3-b]pyridazine], 538 nM.
On the same count and under the same terms, next, `Clc1ccc(Cc2nn3c(CC4CCOCC4)nnc3c3ncc(N4CCOCC4)cc23)cc1` [Example 126, 6-(4-chlorobenzyl)-8-(morpholin-4-yl)-3-(tetrahydro-2H-pyran-4-ylmethyl)pyrido[2,3-d][1,2,4]triazolo[4,3-b]pyridazine]: 20.6 nM; `CC(C)c1nnc2c3ncc(N4CCOCC4)cc3c(Cc3ccc(Cl)cc3)nn12` [Example 127, 6-(4-chlorobenzyl)-8-(morpholin-4-yl)-3-(propan-2-yl)pyrido[2,3-d][1,2,4]triazolo[4,3-b]pyridazine]: 147 nM; `COCC1CN(c2cnc3c(c2)c(Cc2ccc(Cl)cc2)nn2c(CC(C)C)nnc32)C1` [Example 128, 6-(4-chlorobenzyl)-8-[3-(methoxymethyl)azetidin-1-yl]-3-(2-methylpropyl)pyrido[2,3-d][1,2,4]triazolo[4,3-b]pyridazine]: 576 nM.
In the case of `CC(c1nnc2c3ncc(N4CCOCC4)cc3c(Cc3ccc(Cl)cc3)nn12)C1CCOCC1` (centres unmarked) [Example 132, 6-(4-chlorobenzyl)-8-(morpholin-4-yl)-3-[1-(tetrahydro-2H-pyran-4-yl)ethyl]pyrido[2,3-d][1,2,4]triazolo[4,3-b]pyridazine], under setting [2], the IC50 was determined as 19.1 nM.

The record behind these values is patent US11999732B2, “P2X3 receptor antagonists” (RECORDATI INDUSTRIA CHIMICA E FARMACEUTICA SPA, priority 2018, dated 2024).
